Experimental data published in US8592490B2, “Self-microemulsifying drug delivery systems” (LEK Pharmaceuticals D.D., priority 2006, dated 2013).
≈ marks a conversion by molar mass, not a printed value.

Legend:
[1] = Solubility of candesartan cilexetil in water from solid state emulsion systems, room temperature; type: physicochemical; conditions: thermodynamic from solid, sample weight 50 mg in 100 ml
Protocol: (§1) The solubility of candesartan cilexetil in water was studied at room temperature. Water dispersion (100 ml) of the sample in the laboratory beaker was mixed on the magnetic stirrer for 60 minutes. Afterwards, the part of the dispersion was taken from the beaker, filtered through the 0.45 μm filter and the concentration of candesartan cilexetil was determined by HPLC.

[2] = cited from earlier work
[3] = Solubility of celecoxib in water from solid state emulsion systems; type: physicochemical; conditions: thermodynamic from solid, sample weight 100 mg, ultrasound
Protocol: as §1
The solubility of celecoxib in water was determined with the same procedure as described in Example 7.

[4] = Stability of micronized vs unmicronised candesartan cilexetil at 40° C. and 75% humidity (impurities); type: physicochemical
Protocol: This approach is not appropriate for candesartan cilexetil, because any mechanical stress applied to the crystals of candesartan cilexetil leads to deterioration of the crystal structure and/or partial or complete (if mechanical stress is long enough) amorphisation, resulting in decreased stability. For example, when micronized candesartan cilexetil with d(0.9)=5 μm is subjected to 40° C. and 75% humidity for 1 month the impurities changed from 0.33% to 0.85%, compared to 0.19% and 0.10% for the unmicronised sample.

[5] = after 40° C. and 75% humidity for 1 month

| impurities [4, 5] [%] | impurities ([4]; initial, before storage) [%] | Compound | further results |
| --- | --- | --- | --- |
|  |  | CCOc1nc2cccc(C(=O)OC(C)OC(=O)OC3CCCCC3)c2n1Cc1ccc(-c2ccccc2-c2nnn[nH]2)cc1 (centres unmarked) [Candesartan cilexetil] | solubility at 60 min [1]: < 0.1 µg/mL; solubility in phosphate buffer ([2]; phosphate buffer pH=7.0, at 37° C.): less than 0.2 μg/ml; water solubility ([2]; water, at 37° C.): 0.5 µg/mL (≈ 0.819 µM) |
|  |  | Cc1ccc(-c2cc(C(F)(F)F)nn2-c2ccc(S(N)(=O)=O)cc2)cc1 [Celecoxib, 4-[5-(4-methylphenyl)-3-(trifluoromethyl)pyrazol-1-yl]benzenesulfonamide] | solubility at 60 min [3]: 0.3 µg/mL (≈ 0.787 µM) |
| 0.85 | 0.33 | CCOc1nc2cccc(C(=O)OC(C)OC(=O)OC3CCCCC3)c2n1Cc1ccc(-c2ccccc2-c2nnn[nH]2)cc1 (centres unmarked) [micronized candesartan cilexetil, candesartan cilexetil] |  |
| 0.10 | 0.19 | CCOc1nc2cccc(C(=O)OC(C)OC(=O)OC3CCCCC3)c2n1Cc1ccc(-c2ccccc2-c2nnn[nH]2)cc1 (centres unmarked) [unmicronised sample, candesartan cilexetil] |  |
